Results: patent US10369165B2, “Composition containing active components of Dracocephalum moldavica L. against myocardial ischemia-reperfusion injury” (Nanjing Ruiying Runze Biopharmaceutical Technology Co., Inc., priority 2014, dated 2019)

What was measured:
PTEN = PTEN (Homo sapiens, UniProt P60484); conditions: previous studies; cited from earlier work
SHP-2 = target: T1, SHP-2 (Homo sapiens, UniProt Q06124); conditions: previous studies; cited from earlier work
T1 sequence (Q06124 1-593): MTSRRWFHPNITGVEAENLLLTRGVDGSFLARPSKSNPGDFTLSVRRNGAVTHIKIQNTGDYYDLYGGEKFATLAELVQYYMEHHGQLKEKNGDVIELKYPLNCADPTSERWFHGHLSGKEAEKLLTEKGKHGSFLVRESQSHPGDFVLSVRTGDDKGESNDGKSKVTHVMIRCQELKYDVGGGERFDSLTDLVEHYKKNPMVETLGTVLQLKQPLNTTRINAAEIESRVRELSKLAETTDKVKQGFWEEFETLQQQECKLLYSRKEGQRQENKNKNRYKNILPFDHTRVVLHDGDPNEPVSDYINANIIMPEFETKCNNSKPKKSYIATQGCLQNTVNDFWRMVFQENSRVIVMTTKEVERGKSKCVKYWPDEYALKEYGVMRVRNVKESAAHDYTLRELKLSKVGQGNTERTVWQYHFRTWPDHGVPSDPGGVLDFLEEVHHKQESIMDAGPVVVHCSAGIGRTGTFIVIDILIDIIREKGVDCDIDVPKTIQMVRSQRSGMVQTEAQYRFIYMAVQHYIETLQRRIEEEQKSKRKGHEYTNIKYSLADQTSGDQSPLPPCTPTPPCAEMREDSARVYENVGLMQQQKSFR

[1] = test system: myocardial ischemia-reperfusion injury (MIRI); conditions: previous studies; cited from earlier work
[2] = test system: rat primary cardiac myocytes; assay: LDH leak of rat primary cardiac myocytes injured by nitrogen hypoxia/reoxygenation; assay type: cell-based; conditions: 30 μM; culture medium supernatant; hypoxia 6 h, reoxygenation 5 h
Protocol: Experiment Method: Wistar ventricular myocytes of neonatal rat aged 2 d are isolated under asepsis condition, then the myocytes are digested with mixture of digestive enzymes (0.06% trypsin and 0.1% type II collagenase mixed in equal amount) for multiple times in a short time. Cardiac myocytes are purified using differential adhesion method. […] The cells are cultured for 24 hours, then the supernatant is discarded, and the cells are washed with PBS three times. All of the cells are classified into contrast group, hypoxia/reoxygenation injury group, hypoxia/reoxygenation model+compatible composition group. After pre-treatment for 24 h, all of the hypoxia/reoxygenation injury groups are placed in glucose-free Earle's solution which has been previously saturated with mixture of 95% N2+5% CO2 for 1 hour. The cells are cultured in hypoxic condition for 6 h at 37° C. in constant-temperature incubator introduced with mixture of 95% N2+[…]. Then the hypoxia treated cells are subjected to reoxygenation in normal condition for 5 h with the high glucose medium DMEM (containing 10% FBS) which has been previously saturated with mixture of 95% air+[…]. At the same time, the cells are incubated with compatible compositions. After treating the experimental groups of cells, the supernatant is collected; the content of LDH leak in supernatant of culture medium is measured according to the steps of LDH kit.

[3] = test system: rat H9c2 cardiac myocytes; assay: MTT cell activity of H9c2 cardiac myocytes after hypoxia/reoxygenation injury; assay type: cell-based; conditions: total 30 μM, 12 h preincubation, hypoxia 6 h, reoxygenation 5 h
Protocol: Rat cardiac myocytes H9c2 in logarithmic growth phase are taken. After digestion, the cells are resuspended with DMEM medium (containing 10% FBS), then inoculated into 96-well plate and normally cultured in incubator of 37° C. and 5% CO2. After entering logarithmic growth phase, the cells are divided into following groups for experiment: (1) normal culture group (Control group): during the experiment, cells are normally cultured in incubator of 37° C. and 5% CO2; (2) […] Model group (Model group): normal culture fluid for the experimental cells in logarithmic growth phase is replaced with glucose-free Earle's solution which has been previously saturated with mixture of 95% N2+5% CO2 for 1 hour. Then the cells are cultured in hypoxic condition for 6 h at 37° C. in constant-temperature incubator introduced with the mixture of 95% N2+5% CO2. Then the hypoxia treated cells are subjected to reoxygenation in normal condition for 5 h with the high glucose medium DMEM (containing 10% FBS) which has been previously saturated with mixture of 95% air+5% CO2. (3) pre-treated compatible group of luteilon, kaempferol and luteolin-7-O-glucoside: H9c2 cells are preincubated for 12 h with luteilon, kaempferol and luteolin-7-O-glucoside combined in different ratios. Then, the normal culture solution is replaced with glucose-free Earle's solution which has been previously saturated with mixture of 95% N2+5% CO2 for 1 hour. After anoxic treatment for 6 h with N2 anoxic tank, the cells are subjected to reoxygenation for 5 h in normal culture condition with normal culture solution; meanwhile the cells are incubated with the administration of each compatible drug. After treatment, 20 μg/ml MTT is added, and each experimental group is cultured for 4 h, then MTT is solved in 150 μl DMSO. OD of each well is read by ELISA meter at wavelength of 490 nm, and activity of cells is determined.

[4] = test system: rat primary cardiac myocytes; assay: MTT cell activity of rat primary cardiac myocytes injured by hypoxia/reoxygenation; assay type: cell-based; conditions: 30 μM, 24 h pre-treatment, hypoxia 6 h, reoxygenation 5 h
Protocol: Wistar ventricular myocytes of neonatal rat aged 2 d are isolated under asepsis condition, then the myocytes are digested with mixture of digestive enzymes (0.06% trypsin and 0.1% type II collagenase mixed in equal amount) for multiple times in a short time. Cardiac myocytes are purified using differential adhesion method. […] The cells are cultured for 24 hours, then the supernatant is discarded, and the cells are washed with PBS three times. […] After pre-treatment for 24 h, all of the hypoxia/reoxygenation injury groups are placed in glucose-free Earle's solution which has been previously saturated with mixture of 95% N2+5% CO2 for 1 hour. The cells are cultured in hypoxic condition for 6 h at 37° C. in constant-temperature incubator introduced with the mixture of 95% N2+5% CO2. Then the hypoxia treated cells are subjected to reoxygenation in normal condition for 5 h with the DMEM high glucose medium (containing 10% FBS) which has been previously saturated with mixture of 95% air+5% CO2. At the same time, the cells are incubated with the administration of compatible compositions. After treating the experimental groups of cells, 20 μg/ml MTT is added, and each experimental group is cultured for 4 h, then MTT is solved in 150 μl DMSO. OD of each well is read by ELISA meter at wavelength of 490 nm, and activity of cells is determined.

[5] = test system: rat primary cardiac myocytes; assay: ATP, ADP, AMP content (HPLC) of rat primary cardiac myocytes injured by nitrogen hypoxia/reoxygenation; assay type: cell-based; conditions: 30 μM, cell lysate supernatant
Protocol: Experiment method: Wistar ventricular myocytes of neonatal rat aged 2 d are isolated under asepsis condition, then the myocytes are digested with mixture of digestive enzymes (0.06% trypsin and 0.1% type II collagenase mixed in equal amount) for multiple times in a short time. Cardiac myocytes are purified using differential adhesion method. […] The cells are cultured for 24 hours, then the supernatant is discarded, and the cells are washed with PBS three times. All of the cells are classified into contrast group, hypoxia/reoxygenation injury group, hypoxia/reoxygenation model+compatible composition group. After pre-treatment for 24 h, all of the hypoxia/reoxygenation injury groups are placed in glucose-free Earle's solution which has been previously saturated with mixture of 95% N2+5% CO2 for 1 hour. The cells are cultured in hypoxic condition for 6 h at 37° C. in constant-temperature incubator introduced with the mixture of 95% N2+5% CO2. Then the hypoxia treated cells are subjected to reoxygenation in normal condition for 5 h with the high glucose medium DMEM (containing 10% FBS) which has been previously saturated with mixture of 95% air+5% CO2. At the same time, the cells are incubated with compatible compositions. After treating the experimental groups of cells, the culture solution is discarded. The cells are washed once with pre-cooled PBS. 500 μl pre-cooled 50% perchlorate solution is added in each well. Pyrolysis of cells take place on ice for 5 min. The cells are scrapped, 600 μl of 2.5 mol/L Na2CO3 solution is added, and pH is adjusted to 6.5. Pyrolysis mixture is collected in centrifuge tube and centrifuged in 4° C. Content of supernatant is determined by HPLC. […] The content is determined with HPLC method. The equipment is LC-2010C quaternionic pump high performance liquid chromatogram, analytical column is Diamonsil C18 column (250 mm×4.6 mm, 5 μm), detection wavelength: 260 nm, mobile phase is 0.05M phosphate buffer (pH 6.5), detector is UV-vis detector. Flow-rate of column is 0.8 ml/min, sample size is 20 μl, and analytical time is 12 min, the data is processed using LCsolution chromatography workstation (Japan, […]).

[6] = test system: rat primary cardiac myocytes; assay: pH of culture supernatant of rat primary cardiac myocytes injured by nitrogen hypoxia/reoxygenation; assay type: cell-based; conditions: 30 μM; culture medium supernatant; hypoxia 6 h, reoxygenation 5 h
Protocol: Experiment method: Wistar ventricular myocytes of neonatal rat aged 2 d are isolated under asepsis condition, then the myocytes are digested with mixture of digestive enzymes (0.06% trypsin and 0.1% type II collagenase mixed in equal amount) for multiple times in a short time. Cardiac myocytes are purified using differential adhesion method. […] The cells are cultured for 24 hours, then the supernatant is discarded, and the cells are washed with PBS three times. All of the cells are classified into contrast group, hypoxia/reoxygenation injury group, hypoxia/reoxygenation model+compatible composition group. After pre-treatment for 24 h, all of the hypoxia/reoxygenation injury groups are placed in glucose-free Earle's solution which has been previously saturated with mixture of 95% N2+5% CO2 for 1 hour. The cells are cultured in hypoxic condition for 6 h at 37° C. in constant-temperature incubator introduced with the mixture of 95% N2+5% CO^2. Then the hypoxia treated cells are subjected to reoxygenation in normal condition for 5 h with the high glucose medium DMEM (containing 10% FBS) which has been previously saturated with mixture of 95% air+5% CO2. At the same time, the cells are incubated with compatible compositions. After treating the experimental groups of cells, the supernatant is collected; the pH of supernatant of culture medium is measured directly with pH meter.

Chain of PTEN (P60484 whole entry, species assumed): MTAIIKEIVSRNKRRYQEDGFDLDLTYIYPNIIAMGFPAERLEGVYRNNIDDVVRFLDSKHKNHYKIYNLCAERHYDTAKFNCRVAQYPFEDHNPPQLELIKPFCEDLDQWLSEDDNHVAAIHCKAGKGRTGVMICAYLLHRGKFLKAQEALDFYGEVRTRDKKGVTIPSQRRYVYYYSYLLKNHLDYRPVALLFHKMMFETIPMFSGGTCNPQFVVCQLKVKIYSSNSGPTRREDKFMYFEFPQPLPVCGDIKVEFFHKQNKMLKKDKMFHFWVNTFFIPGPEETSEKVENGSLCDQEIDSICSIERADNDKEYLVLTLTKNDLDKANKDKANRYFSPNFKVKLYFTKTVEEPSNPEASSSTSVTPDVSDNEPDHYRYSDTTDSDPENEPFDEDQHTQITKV

| Structure (SMILES) | activity of PTEN (PTEN) | activity of SHP-2 (SHP-2) | heart rate [1] | mitochondrial Ca2+ [1] | Leak rate (%) of LDH [2] [%] | protection rate of cell activity (%) [3] [%] | protection rate of cell activity (%) [4] [%] | ADP [5] [µg/mL] | AMP [5] [µg/mL] | ATP [5] [µg/mL] | pH of supernatant [6] | function of myocardial contraction [1] | mitochondrial membrane potential [1] | level of cytoplasmic Ca2+ [1] | oxygen free radical damage [1] |
| --- | --- | --- | --- | --- | --- | --- | --- | --- | --- | --- | --- | --- | --- | --- | --- |
| O=c1c(O)c(-c2ccc(O)cc2)oc2cc(O)cc(O)c12 [Kaempferol, kaempferol] | inhibit | inhibit | maintain | reduce | 111.25 | 76.97 ± 6.67 | 69.22 | 17.15 | 7.15 | 84.72 | 7.10 | – | – | – | – |
| O=c1cc(-c2ccc(O)c(O)c2)oc2cc(O)cc(O)c12 [Luteilon, luteolin] | – | – | – | – | 122.37 | 81.93 ± 7.18 | 68.08 | 15.38 | 7.59 | 102.88 | 7.11 | improve | increase | – | – |
| O=c1cc(-c2ccc(O)c(O)c2)oc2cc(O[C@@H]3O[C@H](CO)[C@@H](O)[C@H](O)[C@H]3O)cc(O)c12 [Luteolin-7-0-glucoside, luteolin-7-O-glucoside] | – | – | – | – | 115.18 | 78.57 ± 4.54 | 71.17 | 17.12 | 8.97 | 69.45 | 7.08 | – | – | reduce | prevent |
